The results in this text go back to patent publication US12077537B2 (Gilead Sciences, Inc., priority 2020, dated 2024).

pEC50: −log10 of the molar value.

The experiment has as its system HIV-IIIb. Briefly: Antiviral assay in MT4 cells. The class given is cell-based. The conditions noted are these: Human immunodeficiency virus 1, MT4, 120 h; MT-4 cells mixed with HIV-IIIb at m.o.i. 0.003; 5 days at 37° C.; CellTiter-Glo luminescence; 50% decrease in signal, a measure of HIV-1 replication. In a few lines:
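MT-4 cells were infected with HIV-IIIb at m.o.i. 0.003 for 1 hour, then added to 3-fold serially diluted compound (10 concentrations, quadruplicate) in medium with 10% FBS. After 5 days at 37° C, cell viability was read by CellTiter-Glo chemiluminescence.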
A word on the pEC50: it is −log10 of the EC50, conventionally taken in molar units. A lower pEC50 goes with a large EC50. For the compound `Cn1nc(NS(C)(=O)=O)c2cccc(-c3cc4sc(-c5c[nH]cn5)nc4nc3C(Cc3cc(F)cc(F)c3)NC(=O)Cn3nc(C(F)(F)F)c4c3C(F)(F)[C@@H]3C[C@H]43)c21` (stereo partly drawn) [Compound 133, N-(1-(2-(1H-imidazol-4-yl)-6-(1-methyl-3-(methylsulfonamido)-1H-indazol-7-yl)thiazolo[4,5-b]pyridin-5-yl)-2-(3,5-difluorophenyl)ethyl)-2-((3bS,4aR)-5,5-difluoro-3-(trifluoromethyl)-3b,4,4a,5-tetrahydro-1H-cyclopropa[3,4]cyclopenta[1,2-c]pyrazol-1-yl)acetamide], the pEC50 was 7.36. With `Cn1nc(NS(C)(=O)=O)c2c(Cl)ccc(-c3cc4c(nc3[C@H](Cc3cc(F)cc(F)c3)NC(=O)Cn3nc(C(F)F)c5c3C(F)(F)[C@@H]3C[C@H]53)NCC(=O)N4)c21` [Example 108, N—((S)-1-(7-(4-chloro-1-methyl-3-(methylsulfonamido)-1H-indazol-7-yl)-2-oxo-1,2,3,4-tetrahydropyrido[2,3-b]pyrazin-6-yl)-2-(3,5-difluorophenyl)ethyl)-2-((3bS,4aR)-3-(difluoromethyl)-5,5-difluoro-3b,4,4a,5-tetrahydro-1H-cyclopropa[3,4]cyclopenta[1,2-c]pyrazol-1-yl)acetamide] the figure was 7.46; with `CC1(O)CN(c2nc3nc([C@H](Cc4cc(F)cc(F)c4)NC(=O)Cn4nc(C(F)(F)F)c5c4C(F)(F)[C@@H]4C[C@H]54)c(-c4ccc(F)c(C(N)=O)c4)cc3s2)C1` [Compound 32, 5-(5-((S)-1-(2-((3bS,4aR)-5,5-difluoro-3-(trifluoromethyl)-3b,4,4a,5-tetrahydro-1H-cyclopropa[3,4]cyclopenta[1,2-c]pyrazol-1-yl)acetamido)-2-(3,5-difluorophenyl)ethyl)-2-(3-hydroxy-3-methylazetidin-1-yl)thiazolo[4,5-b]pyridin-6-yl)-2-fluorobenzamide], 7.22; with `Cn1nc(NS(C)(=O)=O)c2c(Cl)ccc(-c3cc4[nH]c(C(C)(C)O)nc4nc3[C@H](Cc3cc(F)cc(F)c3)NC(=O)Cn3nc(C(F)(F)F)c4c3C(F)(F)[C@@H]3C[C@H]43)c21` [Example 106, N—((S)-1-(6-(4-chloro-1-methyl-3-(methylsulfonamido)-1H-indazol-7-yl)-2-(2-hydroxypropan-2-yl)-1H-imidazo[4,5-b]pyridin-5-yl)-2-(3,5-difluorophenyl)ethyl)-2-((3bS,4aR)-5,5-difluoro-3-(trifluoromethyl)-3b,4,4a,5-tetrahydro-1H-cyclopropa[3,4]cyclopenta[1,2-c]pyrazol-1-yl)acetamide], 8.19. With `NC(=O)c1cc(-c2nc3nc(C(Cc4cc(F)cc(F)c4)NC(=O)Cn4nc(C(F)(F)F)c5c4C(F)(F)[C@@H]4C[C@H]54)c(-c4ccc(F)c(C(N)=O)c4)cc3s2)ccc1F` (stereo partly drawn) [Example 117, 5,5′-(5-(1-(2-((3bS,4aR)-5,5-difluoro-3-(trifluoromethyl)-3b,4,4a,5-tetrahydro-1H-cyclopropa[3,4]cyclopenta[1,2-c]pyrazol-1-yl)acetamido)-2-(3,5-difluorophenyl)ethyl)thiazolo[4,5-b]pyridine-2,6-diyl)bis(2-fluorobenzamide)] the figure was 7.03; with `NC(=O)c1cc(-c2cc3scnc3nc2[C@H](Cc2cc(F)cc(F)c2)NC(=O)Cn2nc(C(F)F)c3c2C(F)(F)CCC3(F)F)ccc1F` [Compound 15-2, (S)-5-(5-(1-(2-(3-(difluoromethyl)-4,4,7,7-tetrafluoro-4,5,6,7-tetrahydro-1H-indazol-1-yl)acetamido)-2-(3,5-difluorophenyl)ethyl)thiazolo[4,5-b]pyridin-6-yl)-2-fluorobenzamide], 6.49.

`C[C@H]1CN(c2nc3nc([C@H](Cc4cc(F)cc(F)c4)NC(=O)Cn4nc(C(F)(F)F)c5c4C(F)(F)[C@@H]4C[C@H]54)c(-c4cccc5c(NS(C)(=O)=O)nn(C)c45)cc3s2)CCN1` [Example 88, 2-((3bS,4aR)-5,5-difluoro-3-(trifluoromethyl)-3b,4,4a,5-tetrahydro-1H-cyclopropa[3,4]cyclopenta[1,2-c]pyrazol-1-yl)-N—((S)-2-(3,5-difluorophenyl)-1-(6-(1-methyl-3-(methylsulfonamido)-1H-indazol-7-yl)-2-((S)-3-methylpiperazin-1-yl)thiazolo[4,5-b]pyridin-5-yl)ethyl)acetamide] gave a negative logarithm of the EC50 (pEC50) of 7.99. The result for `C[C@@H]1CN(c2nc3nc([C@H](Cc4cc(F)cc(F)c4)NC(=O)Cn4nc(C(F)(F)F)c5c4C(F)(F)[C@@H]4C[C@H]54)c(-c4cccc5c(NS(C)(=O)=O)nn(C)c45)cc3s2)CCN1` [Example 89, 2-((3bS,4aR)-5,5-difluoro-3-(trifluoromethyl)-3b,4,4a,5-tetrahydro-1H-cyclopropa[3,4]cyclopenta[1,2-c]pyrazol-1-yl)-N—((S)-2-(3,5-difluorophenyl)-1-(6-(1-methyl-3-(methylsulfonamido)-1H-indazol-7-yl)-2-((R)-3-methylpiperazin-1-yl)thiazolo[4,5-b]pyridin-5-yl)ethyl)acetamide] reads 7.95; that for `Cn1nc(NS(C)(=O)=O)c2c(Cl)ccc(-c3cc4[nH]c(=O)[nH]c4nc3[C@H](Cc3cc(F)cc(F)c3)NC(=O)Cn3nc(C(F)F)c4c3C(F)(F)[C@@H]3C[C@H]43)c21` [Example 109, N—((S)-1-(6-(4-chloro-1-methyl-3-(methylsulfonamido)-1H-indazol-7-yl)-2-oxo-2,3-dihydro-1H-imidazo[4,5-b]pyridin-5-yl)-2-(3,5-difluorophenyl)ethyl)-2-((3bS,4aR)-3-(difluoromethyl)-5,5-difluoro-3b,4,4a,5-tetrahydro-1H-cyclopropa[3,4]cyclopenta[1,2-c]pyrazol-1-yl)acetamide], 7.43; that for `O=C(Cn1nc(C(F)F)c2c1C(F)(F)[C@@H]1C[C@H]21)N[C@@H](Cc1cc(F)cc(F)c1)c1ccc2sc(-c3ccc4c(c3)C(=O)NC4)nc2n1` [Compound 23-1, 2-((3bS,4aR)-3-(difluoromethyl)-5,5-difluoro-3b,4,4a,5-tetrahydro-1H-cyclopropa[3,4]cyclopenta[1,2-c]pyrazol-1-yl)-N—((S)-2-(3,5-difluorophenyl)-1-(2-(3-oxoisoindolin-5-yl)thiazolo[4,5-b]pyridin-5-yl)ethyl)acetamide], 5.71. The result for `NC(=O)c1cc(-c2cc3sc(-c4cncnc4)nc3nc2[C@H](Cc2cc(F)cc(F)c2)NC(=O)Cn2nc(C(F)(F)F)c3c2C(F)(F)[C@@H]2C[C@H]32)ccc1F` [Compound 148, 5-(5-((S)-1-(2-((3bS,4aR)-5,5-difluoro-3-(trifluoromethyl)-3b,4,4a,5-tetrahydro-1H-cyclopropa[3,4]cyclopenta[1,2-c]pyrazol-1-yl)acetamido)-2-(3,5-difluorophenyl)ethyl)-2-(pyrimidin-5-yl)thiazolo[4,5-b]pyridin-6-yl)-2-fluorobenzamide] reads 7.04; that for `NC(=O)c1cc(-c2cc3sc(N4CCN(c5ccncc5)CC4)nc3nc2[C@H](Cc2cc(F)cc(F)c2)NC(=O)Cn2nc(C(F)(F)F)c3c2C(F)(F)[C@@H]2C[C@H]32)ccc1F` [Compound 26, 5-(5-((S)-1-(2-((3bS,4aR)-5,5-difluoro-3-(trifluoromethyl)-3b,4,4a,5-tetrahydro-1H-cyclopropa[3,4]cyclopenta[1,2-c]pyrazol-1-yl)acetamido)-2-(3,5-difluorophenyl)ethyl)-2-(4-(pyridin-4-yl)piperazin-1-yl)thiazolo[4,5-b]pyridin-6-yl)-2-fluorobenzamide], 6.95.
